Assay results reported in patent US20050272035A1, “Functional screening method” (priority 2002, published 2005).

How the values were obtained:
[1] = test system: Cyt-C (EGFP-Cytochrome C); assay: Granularity and Membrane Spot image analysis of EGFP-Cytochrome C indicator in HeLa cells; assay type: cell-based; settings: staurosporine treated HeLa cells, FIG. 10 inset
Description: A further group of indicator proteins were transfected into HeLa cells and cells imaged before and after exposure to staurosporine as described in Example 2. […] These algorithms return results which quantitate fluorescence in degrees of granularity (i.e. low value indicates uniform distribution, high value indicates punctate distribution) and in terms of membrane localisation.

[2] = test system: ATF1 (activating transcription factor 1); assay: Nuclear trafficking (N/C ratio) of ATF1-EGFP indicator in transiently transfected HeLa cells; assay type: cell-based; settings: 1 μM, 5 minutes, scatterplot FIG. 9
Description: Expression vectors encoding cDNA-EGFP indicators were transiently transfected into HeLa cells growing in wells of 96 well microtitre plates by chemically mediated transfection (Fugene, Roche) and cells incubated under standard growth conditions for 24 hours to permit synthesis of indicator fusion proteins. Cells were subsequently stained with DRAQ 5, a cell permeable nuclear DNA binding dye (Biostatus), to fluorescently mark cell nuclei, and all wells imaged with dual laser excitation (EGFP 488 nm, DRAQ 5 633 nm) using an IN Cell Analyzer (Amersham Biosciences). Data for green (EGFP) and red (DRAQ 5) fluorescence were collected for all cells (FIG. 6) and used to determine thresholds for data separation of transfected cells (EGFP fluorescence above threshold) from non-transfected cells (EGFP fluorescence below threshold).
Indicator proteins derived from a range of cDNAs as described for Example 1 were transfected into HeLa cells and allowed to express for 24 hours. Following expression, cells were transferred into serum-free media for 2 hours to allow effects of stimuli from serum factors such as cortisol to decay. […] This algorithm allows the spatial distribution of cDNA-EGFP fusion proteins to be quantitated in expressing cells: a low N/C ratio indicating a cytoplasmic location for the indicator protein, a high N/C ration indicating a nuclear location. […]

Q: How did the “ratio of outputs of Granularity and Membrane Spot algorithms for Cyt-C indicator” value [1] turn out when CN[C@@H]1C[C@H]2O[C@@](C)([C@@H]1OC)n1c3ccccc3c3c4c(c5c6ccccc6n2c5c31)C(=O)NC4 [staurosporine] was run?
A: highest differential return from the two algorithms

Q: What about the “response of ATF1 indicator N/C ratio to modulator” value [2] of the same molecule?
A: specific and differential responses
